ChEMBL document CHEMBL5608246, “Membrane-Targeting Amphiphilic Honokiol Derivatives Containing an Oxazole Moiety as Potential Antibacterials against Methicillin-Resistant Staphylococcus aureus” (J Med Chem, 2024)
Calls of active or inactive are those of the source. No cut-off for these calls is given here.

Experiments:
Cell membrane [1] = test: Induction of membrane disruption in methicillin resistant Staphylococcus aureus 20 assessed as viable cells with intact membrane at 16 ug/ml incubated for 2 hrs by SYTO9/PI staining based flow cytometry analysis (reference value: 98.7%); assay type: cell membranes; settings: dose 16.0 µg/ml
Staphylococcus aureus [2] = test: Antibacterial activity against Staphylococcus aureus ATCC 29213 incubated for 16 to 18 hrs by broth dilution method; assay type: functional; settings: time 16-18 hrs
Staphylococcus aureus [3] = test: Antibacterial activity against methicillin resistant Staphylococcus aureus M11 incubated for 16 to 18 hrs by broth dilution method; assay type: functional; settings: time 16-18 hrs
Staphylococcus aureus [4] = test: Antibacterial activity against methicillin resistant Staphylococcus aureus M13 incubated for 16 to 18 hrs by broth dilution method; assay type: functional; settings: time 16-18 hrs
Staphylococcus aureus [5] = test: Antibacterial activity against methicillin resistant Staphylococcus aureus M14 incubated for 16 to 18 hrs by broth dilution method; assay type: functional; settings: time 16-18 hrs
Staphylococcus aureus [6] = test: Antibacterial activity against methicillin resistant Staphylococcus aureus M16 incubated for 16 to 18 hrs by broth dilution method; assay type: functional; settings: time 16-18 hrs
Staphylococcus aureus [7] = test: Antibacterial activity against methicillin resistant Staphylococcus aureus M21 incubated for 16 to 18 hrs by broth dilution method; assay type: functional; settings: time 16-18 hrs
[8] = Selectivity index, ratio of HC50 for sheep RBC to MIC for Staphylococcus aureus ATCC 29213; assay type: toxicity; settings: sheep red blood cells, read-out: Selectivity Index
Staphylococcus aureus [9] = test: Antibacterial activity against Staphylococcus aureus ATCC 29213 after 20 passages incubated for 16 to 18 hrs; assay type: functional; settings: time 16-18 hrs
Cell membrane [10] = test: Induction of membrane disruption in methicillin resistant Staphylococcus aureus 20 at 16 ug/ml incubated for 4 hrs by DAPI/PI staining based laser confocal microscopic analysis; settings: dose 16.0 µg/ml
Cell membrane [11] = test: Induction of membrane permeability in methicillin resistant Staphylococcus aureus 20 assessed as broken cell membrane by measuring increased fluorescence intensity at 32 ug/ml measured at 2 mins interval over 20 mins by SYTOX green staining based assay; assay type: cell membranes; settings: dose 32.0 µg/ml
Staphylococcus aureus [12] = test: Antibacterial activity against methicillin resistant Staphylococcus aureus 20 incubated for 16 to 18 hrs in presence of 2 to 64 ug/ml phosphatidylglycerol by checkerboard broth dilution method; assay type: functional, organism-based; settings: time 16-18 hrs
Staphylococcus aureus [13] = test: Antibacterial activity against methicillin resistant Staphylococcus aureus 20 incubated for 16 to 18 hrs in presence of 32 ug/ml phosphatidylglycerol by checkerboard broth dilution method; assay type: functional; settings: time 16-18 hrs
Staphylococcus aureus [14] = test: Upregulation of cwrA gene expression in methicillin resistant Staphylococcus aureus N315 at 4 ug/ml incubated for 4 hrs by RNA-sequencing analysis; assay type: functional; settings: dose 4.0 µg/ml
Staphylococcus aureus [15] = test: Upregulation of mspA gene expression in methicillin resistant Staphylococcus aureus N315 at 4 ug/ml incubated for 4 hrs by RNA-sequencing analysis; assay type: functional; settings: dose 4.0 µg/ml
Staphylococcus aureus [16] = test: Effect on ABC transporter protein gene expression in methicillin resistant Staphylococcus aureus N315 at 4 ug/ml incubated for 4 hrs by RNA-sequencing analysis; assay type: functional; settings: dose 4.0 µg/ml
Staphylococcus aureus [17] = test: Inhibition of enzyme activity in methicillin resistant Staphylococcus aureus N315 at 4 ug/ml incubated for 4 hrs by RNA-sequencing analysis; assay type: functional, organism-based; settings: dose 4.0 µg/ml
Staphylococcus aureus [18] = test: Inhibition of transcription in methicillin resistant Staphylococcus aureus N315 at 4 ug/ml incubated for 4 hrs by RNA-sequencing analysis; assay type: functional, organism-based; settings: dose 4.0 µg/ml
Staphylococcus aureus [19] = test: Disruption of redox process in methicillin resistant Staphylococcus aureus N315 at 4 ug/ml incubated for 4 hrs by RNA-sequencing analysis; assay type: functional, organism-based; settings: dose 4.0 µg/ml
Staphylococcus aureus [20] = test: Inhibition of arginine synthesis in methicillin resistant Staphylococcus aureus N315 at 4 ug/ml incubated for 4 hrs by RNA-sequencing analysis; assay type: functional, organism-based; settings: dose 4.0 µg/ml
Staphylococcus aureus [21] = test: Inhibition of lysine synthesis in methicillin resistant Staphylococcus aureus N315 at 4 ug/ml incubated for 4 hrs by RNA-sequencing analysis; assay type: functional, organism-based; settings: dose 4.0 µg/ml
[22] = Toxicity in Kunming mouse assessed as skin redness at 40 to 80 mg/kg, sc measured after 24 hrs; assay type: organism-based; settings: in vivo, dose 40-80 mg/kg
[23] = Toxicity in Kunming mouse assessed as skin swelling at 40 to 80 mg/kg, sc measured after 24 hrs; assay type: organism-based; settings: in vivo, dose 40-80 mg/kg
[24] = Toxicity in Kunming mouse assessed as change in white blood cell counts at 20 mg/kg, sc measured after 24 hrs; assay type: organism-based; settings: in vivo
[25] = Toxicity in Kunming mouse assessed as change in red blood cell counts at 20 mg/kg, sc measured after 24 hrs; assay type: organism-based; settings: in vivo
[26] = Toxicity in Kunming mouse assessed as change in mean corpuscular volume at 20 mg/kg, sc measured after 24 hrs; assay type: organism-based; settings: in vivo
[27] = Toxicity in Kunming mouse assessed as change in creatinine level at 20 mg/kg, sc measured after 24 hrs; assay type: organism-based; settings: in vivo
[28] = Toxicity in Kunming mouse assessed as heart abnormalities at 10 mg/kg, sc measured after 24 hrs; assay type: organism-based; settings: in vivo
Staphylococcus aureus [29] = test: Antibacterial activity against methicillin resistant Staphylococcus aureus 20 infected in Kunming mouse skin abscess model assessed as reduction in abscess size at 5 mg/kg, sc measured after 2 hrs; assay type: functional, organism-based
Staphylococcus aureus [30] = test: Antibacterial activity against methicillin resistant Staphylococcus aureus 20 infected in Kunming mouse skin abscess model assessed as reduction in severity of skin abscess at 5 mg/kg, sc measured after 2 hrs; assay type: functional, organism-based
Staphylococcus aureus [31] = test: Antibacterial activity against methicillin resistant Staphylococcus aureus 20 infected in Kunming mouse skin abscess model assessed as reduction in inflammatory cells in infection sites at 5 to 10 mg/kg, sc measured after 2 hrs; assay type: functional, organism-based; settings: dose 5-10 mg/kg
Staphylococcus aureus [32] = test: Antibacterial activity against methicillin resistant Staphylococcus aureus 20 infected in Kunming mouse skin abscess model assessed as reduction in inflammatory cell infiltration in subcutaneous layer at 10 mg/kg, sc measured after 2 hrs; assay type: functional, organism-based
Staphylococcus aureus [33] = test: Antibacterial activity against methicillin resistant Staphylococcus aureus 20 infected in Kunming mouse skin abscess model assessed as reduction in bacterial load at 5 mg/kg, sc measured after 2 hrs; assay type: functional; set-up: scale not given: the % may be the effect or the level left
Staphylococcus aureus [34] = test: Antibacterial activity against methicillin resistant Staphylococcus aureus 20 infected in Kunming mouse skin abscess model assessed as reduction in TNF-alpha level at 5 to 10 mg/kg, sc measured after 2 hrs by ELISA; assay type: functional, organism-based; settings: dose 5-10 mg/kg
Staphylococcus aureus [35] = test: Antibacterial activity against methicillin resistant Staphylococcus aureus 20 infected in Kunming mouse skin abscess model assessed as reduction in IL-6 level at 5 to 10 mg/kg, sc measured after 2 hrs by ELISA; assay type: functional, organism-based; settings: dose 5-10 mg/kg
[36] = Toxicity in Kunming mouse skin abscess model infected with methicillin resistant Staphylococcus aureus assessed as heart damage at 5 to 10 mg/kg, sc measured after 2 hrs by H and E staining based assay; assay type: organism-based; settings: in vivo, dose 5-10 mg/kg
[37] = Toxicity in Kunming mouse skin abscess model infected with methicillin resistant Staphylococcus aureus assessed as lung damage at 5 to 10 mg/kg, sc measured after 2 hrs by H and E staining based assay; assay type: organism-based; settings: in vivo, dose 5-10 mg/kg
[38] = Toxicity in Kunming mouse skin abscess model infected with methicillin resistant Staphylococcus aureus assessed as kidney damage at 5 to 10 mg/kg, sc measured after 2 hrs by H and E staining based assay; assay type: organism-based; settings: in vivo, dose 5-10 mg/kg
Cell membrane [39] = test: Induction of membrane disruption in methicillin resistant Staphylococcus aureus 20 assessed as viable cells with intact membrane at 8 ug/ml incubated for 2 hrs by SYTO9/PI staining based flow cytometry analysis (reference value: 98.7%); assay type: cell membranes; settings: dose 8.0 µg/ml
Cell membrane [40] = test: Induction of membrane disruption in methicillin resistant Staphylococcus aureus 20 assessed as increase in red fluorescence signal incubated for 2 hrs by SYTO9/PI staining based flow cytometry analysis; settings: dose 8-128 µg/ml

SMILES: C=CCc1cc(-c2ccc(OCCC[N+](C)(C)CC(=O)NCCCC)c(CC=C)c2)c2oc(-c3c(Cl)cccc3Cl)nc2c1.[Br-]
- Activity (Cell membrane [1]): 0.17%
- MIC (Staphylococcus aureus [2]): 2 µg/mL
- MIC (Staphylococcus aureus [3]): 4 µg/mL
- MIC (Staphylococcus aureus [4]): 8 µg/mL
- MIC (Staphylococcus aureus [5]): 2 µg/mL
- MIC (Staphylococcus aureus [6]): 2 µg/mL
- MIC (Staphylococcus aureus [7]): 4 µg/mL
- selectivity ratio [8]: 54.5
- MIC (Staphylococcus aureus [9]): 2 µg/mL
- Activity (Cell membrane [10]): Active
- Activity (Cell membrane [11]): Active
- Activity (Staphylococcus aureus [12]): inactive
- MIC (Staphylococcus aureus [13]): 32 µg/mL
- Activity (Staphylococcus aureus [14]): Active
- Activity (Staphylococcus aureus [15]): Active
- Activity (Staphylococcus aureus [16]): Active
- Activity (Staphylococcus aureus [17]): Active
- inhibition (Staphylococcus aureus [18]): Active
- Activity (Staphylococcus aureus [19]): Active
- inhibition (Staphylococcus aureus [20]): Active
- inhibition (Staphylococcus aureus [21]): Active
- Activity [22]: Toxic
- Activity [23]: Toxic
- Activity [24]: Non-Toxic
- Activity [25]: Non-Toxic
- Activity [26]: Non-Toxic
- Activity [27]: Non-Toxic
- Activity [28]: Non-Toxic
- Activity (Staphylococcus aureus [29]): Active
- Activity (Staphylococcus aureus [30]): Active
- Activity (Staphylococcus aureus [31]): Active
- Activity (Staphylococcus aureus [32]): Active
- Activity (Staphylococcus aureus [33]): 96.54%
- Activity (Staphylococcus aureus [34]): Active
- Activity (Staphylococcus aureus [35]): Active
- Activity [36]: Non-Toxic
- Activity [37]: Non-Toxic
- Activity [38]: Non-Toxic
- Activity (Cell membrane [39]): 61.6%
- Activity (Cell membrane [40]): Dose-Dependent Effect
